Paper PMC10444810, “Induction of open-form bile canaliculus formation by hepatocytes for evaluation of biliary drug excretion” (Communications Biology, 2023)
Where “and” joins values, the source holds several entries; their conditions need not be identical. Equal values may be shown once.

System: icHep (PXB-cells on claudin-1, -2, -3, -9 coated Transwell permeable support)
Test: icHep permeation assay (sinusoidal to bile side) to estimate drug biliary excretion clearance
Conditions: for In vitro CLbile, app: single replicates; for Predicted in vivo CLbile, int, Mean: mean of 3; for In vitro CLbile, int / Predicted in vivo CLbile, int: single replicate; for Biliary excretion clearance, in vivo, predicted, CLbile, int: scaled up from in vitro CLbile,int, mean ± S.D., n = 3
[1] = Control, block with icHep (HUM181001B)
[2] = Control, block with icHep (JFC)

| SMILES | In vitro CLbile, app, Mean [1] | In vitro CLbile, app [1] | In vitro CLbile, app [2] | Predicted in vivo CLbile, int, Mean (icHep (HUM181001B)) | In vitro CLbile, int (icHep (HUM181001B)) | Predicted in vivo CLbile, int (icHep (HUM181001B)) | Biliary excretion clearance, in vivo, predicted, CLbile, int (icHep (HUM181001B)) | In vitro CLbile, app (icHep (HUM181001B)) | Predicted in vivo CLbile, int, Mean (icHep (JFC)) | In vitro CLbile, int (icHep (JFC)) | Predicted in vivo CLbile, int (icHep (JFC)) | Biliary excretion clearance, in vivo, predicted, CLbile, int (icHep (JFC)) | In vitro CLbile, app (icHep (JFC)) | In vitro CLbile, app, Mean [2] | In vitro CLbile, app, Mean (icHep (HUM181001B)) | In vitro CLbile, app, Mean (icHep (JFC)) |
| --- | --- | --- | --- | --- | --- | --- | --- | --- | --- | --- | --- | --- | --- | --- | --- | --- |
| CC[C@H]1OC(=O)[C@H](C)[C@@H](O[C@H]2C[C@@](C)(OC)[C@@H](O)[C@H](C)O2)[C@H](C)[C@@H](O[C@@H]2O[C@H](C)C[C@H](N(C)C)[C@H]2O)[C@](C)(O)C[C@@H](C)C(=O)[C@H](C)[C@@H](O)[C@]1(C)O [Erythromycin, erythromycin] | 0.624 ul/min/106 cells | 0.611 ul/min/106 cells and 0.632 ul/min/106 cells and 0.630 ul/min/106 cells | 1.41 ul/min/106 cells and 1.36 ul/min/106 cells and 1.35 ul/min/106 cells | 171 mL/min | 0.865 ul/min/106 cells and 0.795 ul/min/106 cells and 0.720 ul/min/106 cells | 187 mL/min and 172 mL/min and 155 mL/min | 171 ± 15.6 mL/min | 1.48 ul/min/106 cells and 1.43 ul/min/106 cells and 1.35 ul/min/106 cells | 158 mL/min | 0.650 ul/min/106 cells and 0.762 ul/min/106 cells and 0.784 ul/min/106 cells | 140 mL/min and 165 mL/min and 169 mL/min | 158 ± 15.6 mL/min | 2.06 ul/min/106 cells and 2.13 ul/min/106 cells |  |  |  |
| C[C@H]1O[C@@H](O[C@H]2[C@@H](O)C[C@H](O[C@H]3[C@@H](O)C[C@H](O[C@H]4CC[C@@]5(C)[C@H](CC[C@@H]6[C@@H]5C[C@@H](O)[C@]5(C)[C@@H](C7=CC(=O)OC7)CC[C@]65O)C4)O[C@@H]3C)O[C@@H]2C)C[C@H](O)[C@@H]1O [Digoxin, digoxin] |  |  |  |  |  | 242 mL/min and 175 mL/min |  |  |  |  | 71.3 mL/min and 159 mL/min and 72.7 mL/min |  |  |  |  |  |
| CCOc1ccc2ccccc2c1C(=O)N[C@@H]1C(=O)N2[C@@H]1SC(C)(C)[C@@H]2C(=O)O [Nafcillin, nafcillin] | 0.838 ul/min/106 cells | 0.848 ul/min/106 cells and 0.836 ul/min/106 cells and 0.830 ul/min/106 cells | 0.724 ul/min/106 cells and 1.28 ul/min/106 cells and 1.30 ul/min/106 cells | 232 mL/min | 0.964 ul/min/106 cells and 1.03 ul/min/106 cells and 1.23 ul/min/106 cells | 208 mL/min and 222 mL/min and 266 mL/min | 232 ± 30.1 mL/min | 1.81 ul/min/106 cells and 1.86 ul/min/106 cells and 2.06 ul/min/106 cells | 479 mL/min | 3.37 ul/min/106 cells and 1.82 ul/min/106 cells and 1.47 ul/min/106 cells | 727 mL/min and 394 mL/min and 316 mL/min | 479 ± 218 mL/min | 4.09 ul/min/106 cells and 3.10 ul/min/106 cells and 2.77 ul/min/106 cells | 1.10 ul/min/106 cells | 1.91 ul/min/106 cells | 3.32 ul/min/106 cells |
| CC[C@]1(O)C[C@H]2CN(CCc3c([nH]c4ccccc34)[C@@](C(=O)OC)(c3cc4c(cc3OC)N(C=O)[C@H]3[C@@](O)(C(=O)OC)[C@H](OC(C)=O)[C@]5(CC)C=CCN6CC[C@]43[C@@H]65)C2)C1 [Vincristine, vincristine] | 0.159 ul/min/106 cells | 0.124 ul/min/106 cells and 0.154 ul/min/106 cells and 0.199 ul/min/106 cells | 0.186 ul/min/106 cells and 0.220 ul/min/106 cells and 0.208 ul/min/106 cells | 27.6 mL/min | 0.176 ul/min/106 cells and 0.118 ul/min/106 cells and 0.0898 ul/min/106 cells | 38.0 mL/min and 25.6 mL/min and 19.4 mL/min | 27.6 ± 9.46 mL/min | 0.300 ul/min/106 cells and 0.273 ul/min/106 cells and 0.289 ul/min/106 cells | 37.3 mL/min | 0.159 ul/min/106 cells and 0.230 ul/min/106 cells and 0.129 ul/min/106 cells | 34.3 mL/min and 49.7 mL/min and 27.8 mL/min | 37.3 ± 11.2 mL/min | 0.345 ul/min/106 cells and 0.450 ul/min/106 cells and 0.337 ul/min/106 cells | 0.205 ul/min/106 cells | 0.287 ul/min/106 cells | 0.377 ul/min/106 cells |
| CN(Cc1cnc2nc(N)nc(N)c2n1)c1ccc(C(=O)N[C@@H](CCC(=O)O)C(=O)O)cc1 [Methotrexate, methotrexate] | 1.51 ul/min/106 cells | 1.65 ul/min/106 cells and 1.43 ul/min/106 cells and 1.44 ul/min/106 cells | 1.41 ul/min/106 cells and 1.36 ul/min/106 cells and 1.35 ul/min/106 cells | 157 mL/min | 0.425 ul/min/106 cells and 0.942 ul/min/106 cells and 0.808 ul/min/106 cells | 91.9 mL/min and 203 mL/min and 175 mL/min | 157 ± 57.9 mL/min | 2.08 ul/min/106 cells and 2.37 ul/min/106 cells and 2.25 ul/min/106 cells | 241 mL/min | 1.21 ul/min/106 cells and 1.27 ul/min/106 cells and 0.865 ul/min/106 cells | 261 mL/min and 274 mL/min and 187 mL/min | 241 ± 46.9 mL/min | 2.06 ul/min/106 cells and 2.12 ul/min/106 cells and 2.13 ul/min/106 cells | 1.37 ul/min/106 cells | 2.23 ul/min/106 cells | 2.11 ul/min/106 cells |
| CN/C(=N/CCSCc1nc[nH]c1C)NC#N [Cimetidine, cimetidine] | 0.585 ul/min/106 cells | 0.596 ul/min/106 cells and 0.590 ul/min/106 cells and 0.570 ul/min/106 cells | 1.06 ul/min/106 cells and 1.22 ul/min/106 cells and 1.15 ul/min/106 cells | 97.8 mL/min | 0.316 ul/min/106 cells and 0.409 ul/min/106 cells and 0.633 ul/min/106 cells | 68.3 mL/min and 88.4 mL/min and 137 mL/min | 97.8 ± 35.1 mL/min | 0.913 ul/min/106 cells and 1.00 ul/min/106 cells and 1.20 ul/min/106 cells | 188 mL/min | 0.810 ul/min/106 cells and 1.04 ul/min/106 cells and 0.756 ul/min/106 cells | 175 mL/min and 225 mL/min and 163 mL/min | 188 ± 32.8 mL/min | 1.87 ul/min/106 cells and 2.26 ul/min/106 cells and 1.90 ul/min/106 cells | 1.14 ul/min/106 cells | 1.04 ul/min/106 cells | 2.01 ul/min/106 cells |
